# The supplement of paper PMC10307832
# Experiments:
# Test in all cases: relative viability (nuclei count vs DMSO), 5 days (fraction); higher = more cells survive
# AZD5582 + Crizotinib = compound: C[C@@H](C(=O)N[C@@H](C1CCCCC1)C(=O)N2CCC[C@H]2C(=O)N[C@@H]3[C@@H](CC4=CC=CC=C34)OCC#CC#CCO[C@@H]5CC6=CC=CC=C6[C@@H]5NC(=O)[C@@H]7CCCN7C(=O)[C@H](C8CCCCC8)NC(=O)[C@H](C)NC)NC [AZD5582] + C[C@@H](Oc1cc(-c2cnn(C3CCNCC3)c2)cnc1N)c1c(Cl)ccc(F)c1Cl [Crizotinib] (partner 1 µM)
# Procedure, shortened: (§1)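 Lung cancer cell lines in 1536-well plates got either a single drug or a fixed anchor-drug dose together with five library-drug doses (not always all listed) in √10 steps, by pin tool, on the day after seeding. Nuclei were counted after 5 days, and relative viability is the treated-to-vehicle ratio of nuclei counts. Values are medians of duplicate plates.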
# AZD5582 + Bortezomib = compound: C[C@@H](C(=O)N[C@@H](C1CCCCC1)C(=O)N2CCC[C@H]2C(=O)N[C@@H]3[C@@H](CC4=CC=CC=C34)OCC#CC#CCO[C@@H]5CC6=CC=CC=C6[C@@H]5NC(=O)[C@@H]7CCCN7C(=O)[C@H](C8CCCCC8)NC(=O)[C@H](C)NC)NC [AZD5582] + CC(C)C[C@H](NC(=O)[C@H](Cc1ccccc1)NC(=O)c1cnccn1)B(O)O [Bortezomib] (partner 0.002 µM)
# Procedure, shortened: as §1
# Temozolomide + AZD7762 = compound: Cn1nnc2c(C(N)=O)ncn2c1=O [Temozolomide] + NC(=O)Nc1cc(-c2cccc(F)c2)sc1C(=O)N[C@H]1CCCNC1 [AZD7762] (partner 0.2 µM)
# Procedure, shortened: as §1
# [1] = compound: Cn1nnc2c(C(N)=O)ncn2c1=O [Temozolomide] + CC(C)C[C@H](NC(=O)[C@H](Cc1ccccc1)NC(=O)c1cnccn1)B(O)O [Bortezomib] (partner 0.002 µM)
# Procedure, shortened: as §1
Cell Line,relative viability (AZD5582 + Crizotinib; first compound 0.005 µM),relative viability (AZD5582 + Crizotinib; first compound 0.01581 µM),relative viability (AZD5582 + Crizotinib; first compound 0.05 µM),relative viability (AZD5582 + Bortezomib; first compound 0.001581 µM),relative viability (AZD5582 + Bortezomib; first compound 0.005 µM),relative viability (AZD5582 + Bortezomib; first compound 0.01581 µM),relative viability (AZD5582 + Bortezomib; first compound 0.05 µM),relative viability (Temozolomide + AZD7762; first compound 0.2 µM),relative viability (Temozolomide + AZD7762; first compound 0.6325 µM),relative viability (Temozolomide + AZD7762; first compound 2 µM),relative viability (Temozolomide + AZD7762; first compound 6.325 µM),relative viability (Temozolomide + AZD7762; first compound 20 µM),relative viability ([1]; first compound 0.6325 µM),relative viability ([1]; first compound 2 µM),relative viability ([1]; first compound 6.325 µM),relative viability ([1]; first compound 20 µM),relative viability (AZD5582 + Crizotinib; first compound 0.001581 µM),relative viability ([1]; first compound 0.2 µM)
CAL-12T,0.175,0.531,0.192,0.777,0.746,0.448,0.668,0.645,0.618,0.628,0.657,0.699,0.964,0.945,1.04,0.967,,
HCC-44,0.457,0.793,0.378,0.711,0.722,0.918,0.553,1.03,1,1.03,1.11,1.05,0.855,0.869,0.827,0.988,0.5,0.938
A-427,0.751,0.97,0.618,0.92,0.954,0.938,0.891,0.758,0.744,0.698,0.472,0.422,0.934,0.993,0.87,0.616,0.623,1
NCI-H1666,0.817,1.01,0.808,0.717,0.805,0.714,0.73,0.795,0.923,0.858,0.7,0.657,0.9,0.595,0.647,0.416,0.662,0.779
HCC-78,0.353,0.312,0.426,0.367,0.604,0.421,0.479,0.668,0.568,0.899,,0.566,0.524,0.537,0.515,0.567,0.294,
HCC-366,0.517,0.56,0.635,0.982,1.1,1.01,1.19,0.286,0.258,0.376,0.311,0.338,1.07,1.1,1.08,1.06,0.476,1.07
EPLC-272H,0.131,0.746,0.0674,0.833,0.396,0.87,0.277,0.194,0.259,0.418,0.217,0.208,1.05,0.91,0.832,0.805,0.187,1.02
NCI-H1755,0.846,0.86,0.916,0.925,1.02,0.936,1.02,0.487,0.396,0.485,0.385,0.638,0.952,1.01,0.897,0.84,0.793,0.961
SK-MES-1,1.02,0.941,1.04,,,,,,,,,,,,,,0.992,
NCI-H838,0.914,0.746,1.04,0.809,1.21,0.382,0.486,0.914,0.977,0.961,0.89,0.881,0.929,1.1,0.847,0.832,0.823,0.829
NCI-H2170,1.25,1.18,1.47,,,,,,0.951,0.733,0.466,0.295,,,,,1.1,
HCC-827,1.02,0.926,0.898,0.974,1.05,0.901,1.07,0.147,0.193,0.196,0.227,0.119,1.1,1.02,1.05,0.32,0.885,1.2
NCI-H1793,,,,,,,,,0.414,0.605,0.401,0.411,,,,,,
NCI-H441,0.567,0.62,0.491,0.379,0.495,0.47,0.418,1.27,1.12,1.04,1.13,1.13,0.336,0.722,0.363,0.44,0.621,0.88
H3255,0.712,0.743,0.756,0.823,0.879,0.385,0.552,,0.839,0.878,0.808,0.257,0.755,0.849,0.824,0.213,0.825,
ABC-1,0.863,1.04,0.919,0.282,0.275,0.291,0.261,0.712,0.761,0.761,0.762,0.763,0.274,0.383,0.315,0.256,0.737,0.351
201T,1.12,1.04,1.25,1.1,1.16,1.07,1.17,0.648,0.649,0.746,0.566,0.519,1.08,1.08,1.07,1.08,1.09,1.15
NCI-H596,0.279,1.03,0.1,1.35,1.2,1.13,0.549,1.29,1.09,1.17,1.02,1.29,1.02,0.97,0.908,1.07,0.902,1.04
EKVX,0.9,0.753,0.96,1.02,1.02,0.934,0.575,,0.743,0.681,0.67,0.418,1.1,1.06,0.996,0.884,0.713,0.991
LOU-NH91,0.746,0.729,0.741,0.45,0.509,0.489,0.443,0.77,0.784,0.836,0.79,0.75,0.514,0.565,0.543,0.456,0.713,0.487
NCI-H1355,0.857,0.982,1.05,1.02,1.14,1.11,1.11,0.736,0.743,0.716,0.729,0.751,1.2,1.2,1.09,1.14,1.02,1.34
SK-LU-1,0.272,0.91,0.152,0.436,0.697,0.856,0.477,,,,,,1.3,1.22,0.53,0.417,0.365,1.33
LK-2,0.218,0.218,0.24,,,,,0.444,0.372,0.404,0.254,0.271,,,,,0.225,
NCI-H650,0.393,0.591,0.401,0.757,0.654,0.57,0.582,0.973,1.16,0.938,0.953,0.879,1.08,0.787,0.807,0.941,0.581,1.18

Cell Line,relative viability (AZD5582 + Crizotinib; first compound 0.005 µM),relative viability (AZD5582 + Crizotinib; first compound 0.01581 µM),relative viability (AZD5582 + Crizotinib; first compound 0.05 µM),relative viability (AZD5582 + Bortezomib; first compound 0.001581 µM),relative viability (AZD5582 + Bortezomib; first compound 0.005 µM),relative viability (AZD5582 + Bortezomib; first compound 0.01581 µM),relative viability (AZD5582 + Bortezomib; first compound 0.05 µM),relative viability (Temozolomide + AZD7762; first compound 0.2 µM),relative viability (Temozolomide + AZD7762; first compound 0.6325 µM),relative viability (Temozolomide + AZD7762; first compound 2 µM),relative viability (Temozolomide + AZD7762; first compound 6.325 µM),relative viability (Temozolomide + AZD7762; first compound 20 µM),relative viability ([1]; first compound 0.6325 µM),relative viability ([1]; first compound 2 µM),relative viability ([1]; first compound 6.325 µM),relative viability ([1]; first compound 20 µM),relative viability (AZD5582 + Crizotinib; first compound 0.001581 µM),relative viability ([1]; first compound 0.2 µM)
NCI-H522,,,,,,,,0.728,0.907,0.952,0.748,0.758,,,,,,
IA-LM,0.63,0.818,0.699,0.704,0.679,0.829,0.74,,,,,,0.988,1.04,0.742,0.945,0.546,0.794
NCI-H1299,0.895,0.994,0.901,1.01,1.08,1.04,0.99,,,,,,1.06,1.04,1.02,1.02,0.895,1.07
COR-L 105,0.82,0.684,0.817,0.768,0.877,0.69,0.827,,,,,,0.683,1.01,0.756,0.32,0.667,0.646
NCI-H2228,0.521,0.702,0.479,0.857,1.34,1.36,0.439,,,,,,1.03,1.02,0.956,1.02,0.623,1.15
NCI-H1563,0.86,0.852,0.978,0.765,0.887,0.788,1.25,,,,,,0.862,0.911,0.878,0.833,0.8,0.91
NCI-H661,0.845,1.04,0.892,0.752,0.927,0.702,0.921,,,,,,0.889,0.887,0.844,0.864,0.902,
NCI-H2023,0.635,0.576,0.703,0.934,1.1,0.721,0.716,,,,,,0.905,1.05,0.933,0.855,0.567,1.01
SW 1573,0.717,0.815,0.858,1.3,0.996,1.04,1.43,,,,,,1.12,1.05,1.19,1.18,0.686,0.949
NCI-H1648,,,,,,,,,0.643,0.756,0.583,0.614,,,,,,
COR-L23,0.682,0.629,0.796,0.942,1.02,1.07,1.09,,,,,,1.12,1.08,1.06,0.963,0.539,1.15
Calu-6,0.384,0.837,0.336,0.917,0.813,0.988,0.551,,,,,,0.866,1.25,0.955,1.02,0.432,1.11
NCI-H1944,1.07,1.09,1.07,,,,,0.432,0.505,0.391,0.441,0.696,,,,,0.914,
NCI-H520,0.709,0.729,0.773,0.702,0.826,0.432,0.757,,,,,,0.688,0.768,0.636,0.548,0.743,0.733
NCI-H2342,,,,,,,,0.457,0.447,0.516,0.506,0.549,,,,,,
NCI-H1650,0.964,0.88,0.736,0.166,0.192,0.188,0.169,,,,,,0.175,0.205,0.167,0.196,0.904,0.199
EBC-1,0.233,0.181,0.208,0.434,0.39,0.528,0.389,,,,,,0.577,0.549,0.544,0.575,0.178,0.601
NCI-H358,0.676,0.704,0.455,,,,,,0.466,0.533,0.408,0.369,,,,,0.505,
UMC-11,0.671,0.578,0.493,0.677,0.873,0.733,0.709,,,,,,0.924,0.945,0.519,0.377,0.534,0.861
NCI-H2009,1.03,0.993,1.02,0.838,1.13,0.61,0.9,,,,,,1,1.19,0.961,1.04,1.01,1.19
A549,0.923,0.667,0.826,,,,,,,,,,,,,,0.504,
NCI-H1395,,,,,,,,0.385,0.381,0.454,0.332,0.362,,,,,,
SW 900,,,,,,,,0.587,0.63,0.583,0.627,0.683,,,,,,
